Measured values from patent US7026334B1, “Thiazolidine compounds and pharmaceutical compositions exhibiting thrombopoietin receptor agonism” (Shionogi & Co., Ltd., priority 1999, dated 2006).

molecular target: T1, human TPO receptor (hTPOR) (Homo sapiens, UniProt P40238); experiment: Proliferation of TPO dependent BaF/hTPOR cells (thrombopoietic activity, WST-1); type: cell-based; details: 20 hours + 4 hours WST-1, absorbance at 450 nm, ED50 = half concentration of the concentration showing the maximum thrombopoietic activity
T1 construct: expressed in transfected cells; host or cells: BaF-BO3 (murine IL-3 dependent pro-B cell line), giving BaF/hTPOR
T1 sequence (P40238 26-635): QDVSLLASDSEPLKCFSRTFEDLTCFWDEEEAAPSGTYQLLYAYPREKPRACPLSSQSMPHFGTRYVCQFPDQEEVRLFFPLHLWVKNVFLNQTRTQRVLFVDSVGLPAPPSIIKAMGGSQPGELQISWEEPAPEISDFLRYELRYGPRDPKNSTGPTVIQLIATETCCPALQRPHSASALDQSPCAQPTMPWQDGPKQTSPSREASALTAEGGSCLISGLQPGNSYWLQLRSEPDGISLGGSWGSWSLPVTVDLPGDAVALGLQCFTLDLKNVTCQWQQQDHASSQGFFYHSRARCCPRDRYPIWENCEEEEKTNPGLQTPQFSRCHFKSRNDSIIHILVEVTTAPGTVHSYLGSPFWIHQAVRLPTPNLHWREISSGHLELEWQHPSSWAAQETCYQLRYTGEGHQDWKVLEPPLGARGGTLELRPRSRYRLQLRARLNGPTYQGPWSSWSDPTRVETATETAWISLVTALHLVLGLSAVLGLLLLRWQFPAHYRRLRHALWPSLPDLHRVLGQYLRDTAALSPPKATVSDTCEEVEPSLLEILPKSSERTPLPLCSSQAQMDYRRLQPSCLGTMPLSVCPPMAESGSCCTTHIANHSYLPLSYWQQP
Description: The TPO dependent BaF/hTPOR cell line which was established by introducing human TPO receptor (hTPOR) into BaF-BO3 cells according to Collins et al (J. Cell. Physiol., 137:293-298 (1988)) was used to test the thrombopoietic activity of the present compound (B-17). The DNA sequences and encoded peptide sequences for human hTPOR have been described by Vigon et al (Proc. Natl. Acad. Sci. USA, 89:5640-5644 (1992)). […] BAF/hTPOR cells were maintained in RPMI medium and WEHI-3B conditioned medium as a source of murine interleukin-3 (IL-3). These cells were washed and resuspended in RPMI medium without a source of murine IL-3 and seeded into each well of 96-well microtiter plates at a density of […] cells per well in the absence or presence of various concentration of hTPO or the present compound. After incubation at 37° C. for 20 hours in the 5% CO2 incubator, 10% WST-1 reagent (Takara Biomedicals, Japan) was added to each wells and the cells were further incubated for 4 hours. Table 24 exemplifies the ED50 for tested compounds of the present invention, wherein the ED50 is the half concentration of the concentration showing the maximum thrombopoietic activity

Compared with `O=C1NC(=S)S/C1=C\c1ccc(C(=O)Nc2nc(-c3ccc(Cl)c(Cl)c3)cs2)cc1` [Compound A-1], `O=C1NC(=O)/C(=C/c2ccc(C(=O)Nc3nc(-c4ccc(Cl)c(Cl)c4)cs3)cc2)S1` [Compound B-16] is 1.7-fold higher in EC50: 12 nM for the first, 20 nM for the second. The first is the more potent here.

`O=C1NC(=S)SC1=Cc1ccc(C(=O)Nc2nc(-c3ccccc3)cs2)cc1` [Compound A-2] and `O=C1NC(=O)C(=Cc2ccc(C(=O)Nc3nc(-c4ccccc4)cs3)cc2)S1` [Compound B-1] are within 1.5-fold of each other in EC50: 58 nM for the first, 71 nM for the second.

Going from `O=C1NC(=S)SC1=Cc1ccc(C(=O)Nc2nc(-c3ccc(F)cc3)cs2)cc1` [Compound A-3] to `O=C1NC(=S)SC1=Cc1ccc(C(=O)Nc2nc(-c3ccc(Br)cc3)cs2)cc1` [Compound A-4], the EC50 rises from 17 nM to 36 nM (2.1-fold). The first is the more potent here.

First: O=C1NC(=S)SC1=Cc1ccc(C(=O)Nc2nc(-c3ccc(Cl)cc3)cs2)cc1 [Compound A-5]
Second: Cc1ccc(-c2csc(NC(=O)c3ccc(C=C4SC(=S)NC4=O)cc3)n2)cc1 [Compound A-6]
The EC50 of the first is 2-fold lower: 22 nM for the first, 45 nM for the second. The first is the more potent here.

`O=C1NC(=S)SC1=Cc1ccc(C(=O)Nc2nc(-c3ccc(-c4ccccc4)cc3)cs2)cc1` [Compound A-7] and `O=C1NC(=O)C(=Cc2ccc(C(=O)Nc3nc(-c4ccc(-c5ccccc5)cc4)cs3)cc2)S1` [Compound B-6] are within 1.5-fold of each other in EC50: 60 nM for the first, 72 nM for the second.

Going from `CC(C)(C)c1ccc(-c2csc(NC(=O)c3ccc(/C=C4\SC(=S)NC4=O)cc3)n2)cc1` [Compound A-11] to `O=C1NC(=S)S/C1=C\c1ccc(C(=O)Nc2nc(-c3ccc(C(F)(F)F)cc3)cs2)cc1` [Compound A-61], the EC50 rises from 31 nM to 69 nM (2.2-fold). The first is the more potent here.

Going from `COC(=O)c1ccc(-c2csc(NC(=O)c3ccc(/C=C4\SC(=S)NC4=O)cc3)n2)cc1` [Compound A-12] to `CC(C)OC(=O)c1ccc(-c2csc(NC(=O)c3ccc(/C=C4\SC(=S)NC4=O)cc3)n2)cc1` [Compound A-25], the EC50 rises from 11 nM to 99 nM (9-fold).

Going from `O=C1NC(=S)S/C1=C\c1ccc(C(=O)Nc2nc(-c3ccc([N+](=O)[O-])cc3)cs2)cc1` [Compound A-14] to `O=C1NC(=S)S/C1=C\c1ccc(C(=O)Nc2nc(-c3ccc(I)cc3)cs2)cc1` [Compound A-73], the EC50 rises from 15 nM to 70 nM (4.7-fold). The first is the more potent here.

Compared with `O=C1NC(=S)S/C1=C\c1ccc(C(=O)Nc2nc(-c3ccc(Cl)s3)cs2)cc1` [Compound A-15], `O=C1NC(=S)S/C1=C\c1ccc(C(=O)Nc2nc(-c3ccc(Br)s3)cs2)cc1` [Compound A-21] is 1.6-fold higher in EC50: 26 nM for the first, 41 nM for the second.

Going from `O=C1NC(=S)S/C1=C\c1ccc(C(=O)Nc2nc(-c3cccs3)cs2)cc1` [Compound A-16] to `O=C1NC(=O)/C(=C/c2ccc(C(=O)Nc3nc(-c4cccs4)cs3)cc2)S1` [Compound B-15], the EC50 rises from 49 nM to 77 nM (1.6-fold).

Compared with `O=C1NC(=S)S/C1=C\c1ccc(C(=O)Nc2nc(-c3ccc(F)c(F)c3)cs2)cc1` [Compound A-20], `O=C1NC(=O)/C(=C/c2ccc(C(=O)Nc3nc(-c4ccc(F)c(F)c4)cs3)cc2)S1` [Compound B-18] is 1.8-fold lower in EC50: 29 nM for the first, 16 nM for the second.

First: CCCCOC(=O)c1ccc(-c2csc(NC(=O)c3ccc(/C=C4\SC(=S)NC4=O)cc3)n2)cc1 [Compound A-26]
Second: Cc1ccc(-c2csc(NC(=O)c3ccc(C=C4SC(=O)NC4=O)cc3)n2)cc1 [Compound B-5]
The EC50 of the first is 1.5-fold higher: 72 nM for the first, 47 nM for the second. The second is the more potent here.

Going from `CCOC(=O)c1sc(NC(=O)c2ccc(/C=C3\SC(=S)NC3=O)cc2)nc1-c1ccccc1` [Compound A-32] to `CCc1sc(NC(=O)c2ccc(/C=C3\SC(=S)NC3=O)cc2)nc1-c1ccccc1` [Compound A-38], the EC50 falls from 77 nM to 47 nM (1.6-fold).

Going from `Cc1sc(NC(=O)c2ccc(/C=C3\SC(=S)NC3=O)cc2)nc1-c1ccc(Cl)cc1` [Compound A-37] to `O=C1NC(=S)S/C1=C\c1ccc(C(=O)Nc2nc(-c3ccc(F)cc3)c(CCCl)s2)cc1` [Compound A-43], the EC50 rises from 27 nM to 73 nM (2.7-fold).

Going from `COC(=O)c1sc(NC(=O)c2ccc(/C=C3\SC(=S)NC3=O)cc2)nc1-c1ccc(F)cc1` [Compound A-42] to `O=C1NC(=O)C(=Cc2ccc(C(=O)Nc3nc(-c4ccc(F)cc4)cs3)cc2)S1` [Compound B-2], the EC50 falls from 72 nM to 11 nM (6.5-fold).

`O=C1NC(=S)S/C1=C\c1ccc(C(=O)Nc2nc3c(s2)CCc2ccccc2-3)cc1` [Compound A-49] and `O=C1NC(=S)S/C1=C\c1ccc(C(=O)Nc2nc3c(s2)CCCc2ccccc2-3)cc1` [Compound A-50] are within 1.5-fold of each other in EC50: 35 nM for the first, 26 nM for the second.

`O=C1NC(=S)S/C1=C\c1ccc(C(=O)Nc2nc(-c3cccc(C(F)(F)F)c3)cs2)cc1` [Compound A-53] and `O=C1NC(=S)S/C1=C\c1ccc(C(=O)Nc2nc(-c3cccc(OC(F)(F)F)c3)cs2)cc1` [Compound A-63] are within 1.5-fold of each other in EC50: 23 nM for the first, 16 nM for the second.

First: Cc1cc(Br)sc1-c1csc(NC(=O)c2ccc(/C=C3\SC(=S)NC3=O)cc2)n1 [Compound A-56]
Second: O=C1NC(=S)S/C1=C\c1ccc(C(=O)Nc2nc(-c3cccc(Br)c3)cs2)cc1 [Compound A-72]
The EC50 of the first is 2.7-fold higher: 96 nM for the first, 35 nM for the second.

`O=C1NC(=S)S/C1=C\c1ccc(C(=O)Nc2nc3c(s2)CSc2ccccc2-3)cc1` [Compound A-59] and `O=C1NC(=O)/C(=C/c2ccc(C(=O)Nc3nc4c(s3)CCc3ccccc3-4)cc2)S1` [Compound B-21] are the same in EC50: 84 nM for the first, 84 nM for the second.

Going from `O=C1NC(=S)S/C1=C\c1ccc(C(=O)Nc2nc(-c3cccc(F)c3)cs2)cc1` [Compound A-64] to `O=C1NC(=S)S/C1=C\c1ccc(C(=O)Nc2nc(-c3ccc(F)cc3F)cs2)cc1` [Compound A-70], the EC50 falls from 47 nM to 20 nM (2.4-fold). The second is the more potent here.

First: O=C1NC(=S)S/C1=C\c1ccc(C(=O)Nc2nc(-c3ccccc3F)cs2)cc1 [Compound A-67]
Second: O=C1NC(=S)S/C1=C\c1ccc(C(=O)Nc2nc(-c3cc(F)c(F)cc3F)cs2)cc1 [Compound A-71]
The EC50 of the first is 1.6-fold lower: 50 nM for the first, 80 nM for the second.

`O=C1NC(=O)C(=Cc2ccc(C(=O)Nc3nc(-c4ccc(Br)cc4)cs3)cc2)S1` [Compound B-3] and `O=C1NC(=O)C(=Cc2ccc(C(=O)Nc3nc(-c4ccc(Cl)cc4)cs3)cc2)S1` [Compound B-4] are within 1.5-fold of each other in EC50: 47 nM for the first, 37 nM for the second.

Going from `O=C1NC(=O)/C(=C/c2ccc(C(=O)Nc3nc(-c4ccc(Cl)s4)cs3)cc2)S1` [Compound B-14] to `O=C1NC(=O)C(=Cc2ccc(C(=O)Nc3nc(-c4ccc(Cl)c(Cl)c4)cs3)s2)S1` [Compound E-2], the EC50 rises from 23 nM to 62 nM (2.7-fold). The first is the more potent here.

For `O=C1NC(=O)C(=Cc2ccc(C(=O)Nc3nc(-c4ccc(Cl)c(Cl)c4)cs3)cc2)O1` [Compound C-1], the EC50 was 68 nM.

tested on: BaF-BO3 cells; experiment: Growth of the parental cell line BaF-BO3 not expressing TPOR; type: cell-based; details: FIG. 3

“TPO: Thrombopoietin, polypeptide cytokine composed of 332 amino acids; Human TPO (hTPO) purchased from R&D Systems” was tested, and the “proliferation of parental BaF cells bearing no TPOR” value was “dose not have any ability to support proliferation”.
